Measurements as given in US20240424051A1, “COMPOSITION FOR TREATING […] OS[…] MECHANISM PROMOTING FORMATION OF MUSCLE FIBERS OR INHIBITING OSTEOCLASTOGENESIS, […]-L-PHENYLALANYL-L-PROLINE DIPEPTIDES” (CELLBION CO., LTD, priority 2021, published 2024).

Experiments:
[1] = system: trabecular bone of mouse femur; test: Micro-CT analysis of trabecular bone of femur after free drinking of cFP; assay type: in vivo; conditions: cFP in drinking water (free drinking), FIG. 4
muscle mass of mice = test: Muscle collection and weighing after oral gavage of cFP; assay type: in vivo, mouse; conditions: male C57BL/6J mice, oral gavage every 24 hours, compared to the control group, FIG. 3
Method: According to an embodiment of the present invention, the increase in muscle weight and bone mass by oral administration of cyclo-L-phenylalanyl-L-proline (cFP) was measured. Muscle weight was measured by separating the muscles of the mouse according to anatomical muscle classification. In addition, trabecular bone analysis on the femur of the mouse was performed using high-resolution micro-CT (SMX-90CT system). Based on the growth plate of the femur, the lower part of the 1 mm was the starting point of the analysis, and the analysis was conducted from the starting point to 1.5 mm below the bone. Each indicator means as follows. bone volume/total bone volume (BV/TV, %), bone surface/trabecular bone volume (BS/BV, 1/mm), trabecular thickness (Tb. Th, mm), trabecular number (Tb.N, 1/mm), trabecular separation (Tb. Sp, mm).
Animal studies were conducted in accordance with the guidelines for animal research. All experimental procedures were approved by the Animal Care and Use Committee of Seoul National University Animal Hospital. Male C57BL/6J mice at 4 or 6 weeks of age were purchased from Orient Bio Inc. (Seongnam, Korea) and housed in a specific pathogen-free (SPF) animal facility with controlled temperature (22° C.), humidity (55%), and a 12-hour light-dark cycle. All animals were provided with a free feeding and drinking system. […]

myoblasts = test: Differentiation of myoblasts and LADD staining (muscle fiber formation experiment); assay type: cell-based; conditions: mouse myoblasts, LADD staining, compared to vehicle, FIG. 1
Excerpt: Muscle growth is due to the formation of muscle fibers according to the binding between individual myoblasts. Therefore, the improvement of muscle growth can be estimated through the degree of muscle fiber formation in the environment that induced the binding of myoblasts. Accordingly, myoblasts were isolated from the muscle tissue of a subject and cultured, and whether muscle fibers were formed using the isolated myoblasts was observed.
The formation of muscle fibers can be evaluated by measuring the number of myoblasts that form muscle fibers and the thickness of the formed muscle fibers. To this end, a high-magnification optical microscope was used to identify the nucleus in the muscle fiber through muscle fiber staining. The thickness of the muscle fiber was also measured.
The muscle tissue was minced with a scalpel for 5 minutes. The minced muscle solution was incubated at 37° C. for 60 minutes and then centrifuged at 1500 rpm for 5 minutes. The obtained cells were suspended in Ham's F-10 medium containing 20% heat-inactivated horse serum and 50 units/ml of penicillin in the presence of basic FGF (2.5 ng/ml), and then plated on a cell culture dish for 1 hour without gelatin coating. After 1 hour, the suspended cells were transferred to a secondary cell culture dish without gelatin coating and cultured for 1 hour. […]

**Q.** Which “BV/TV (bone volume/total bone volume)” value [1] does the source give for `O=C1NC(Cc2ccccc2)C(=O)N2CCCC12` [cFP, cyclo-L-phenylalanyl-L-proline] here?
**A.** significantly high

**Q.** What about the “Tb. N (trabecular number)” value [1] of the same compound?
**A.** significantly high

**Q.** And the “Tb. Th (trabecular thickness)” value [1]?
**A.** significantly high

**Q.** What about the “muscle mass of the mice” value (muscle mass of mice) of the same compound?
**A.** increased

**Q.** What about the “fusion of myoblasts (muscle fiber formation; diameter of myotube and number of nuclei of myotube)” value (myoblasts) of the same compound?
**A.** promoted the fusion of myoblasts
